Patent US20260226493A1, “HERBICIDE RESISTANT PLANTS” (SYNGENTA CROP PROTECTION AG, priority 2023, published 2026)

Key:
[1] = tested on: D4555 (Escherichia coli BioA) containing tobacco plants; assay: Visual herbicide damage score on transgenic tobacco D4555 (pCMP MTP EcBioA); format: in vivo; conditions: 600 gai/ha, replicate clones A, B, C of events 8480, 8526
Source text: In order to determine if the overexpressed gene detailed in Example 3 confers resistance to BIO3-BIO1 inhibiting compounds when expressed in plants, GM tobacco lines were produced and tested with BIO3-BIO1 inhibiting compounds. Transgenic tobacco plants expressing the Escherichia coli BioA gene with (SEQ ID NO:203) and without a mitochondrial signal peptide (SEQ ID NO: 202).
Populations of transgenic tobacco comprising 20-30 transgenic events per plant transformation constructs were generated as described in Example 1. These lines were clonally propagated and 1 clone per event was sprayed with 600 g ai/ha compound L or A+0.2% Genapol X080 with a spray volume of 200 L/Ha (“g ai/ha” refers to grams of active compound per hectare).
[…] A score of 0 indicates no visible damage or stunting whereas a score of 100 indicates a complete death of the plant. 20 transgenic events (i.e. individual transgenic plants) from each GM tobacco line were transplanted to soil 1 week prior to spraying with BIO3-BIO1 inhibiting compounds. WT tobacco was included as a control.
• D4555 (Escherichia coli BioA) containing tobacco plants; 04602 (Pantoea ananatis BioA) containing tobacco plants; 04603 (Stenotrophomonas maltophilia BioA) containing tobacco plants; 04609 (Chroococcidiopsis sp. CCMEE 29 BioA) containing tobacco plants; 04611 (Bacillus subtilis BioA) containing tobacco plants; 04606 (Streptomyces viridochromogenes BioA) containing tobacco plants; 04607 (Pedobacter hartonius BioA) containing tobacco plants; 04608 (Chitinophaga filiformis BioA) containing tobacco plants; and 04610 (Tenacibaculum adriaticum BioA) containing tobacco plants, are shown in the “TABLES” section below in Tables 16 to 24 respectively.

[2] = molecular target: T1, Arabidopsis thaliana BIO3-BIO1 (BioDA) mutants (Arabidopsis thaliana, UniProt B0F481); assay: BIO3-BIO1 mutant enzyme activity in the presence of herbicide, percentage inhibition (fluorometric DAPA assay); format: biochemical
T1 construct: with the predicted N-terminal mitochondrial transit peptide removed; 6xHis-tag (N); thrombin cleavage site (N); made in house; host or cells: E. coli BL21 (DE3) bioA
T1 sequence (B0F481 23-833, change not shown): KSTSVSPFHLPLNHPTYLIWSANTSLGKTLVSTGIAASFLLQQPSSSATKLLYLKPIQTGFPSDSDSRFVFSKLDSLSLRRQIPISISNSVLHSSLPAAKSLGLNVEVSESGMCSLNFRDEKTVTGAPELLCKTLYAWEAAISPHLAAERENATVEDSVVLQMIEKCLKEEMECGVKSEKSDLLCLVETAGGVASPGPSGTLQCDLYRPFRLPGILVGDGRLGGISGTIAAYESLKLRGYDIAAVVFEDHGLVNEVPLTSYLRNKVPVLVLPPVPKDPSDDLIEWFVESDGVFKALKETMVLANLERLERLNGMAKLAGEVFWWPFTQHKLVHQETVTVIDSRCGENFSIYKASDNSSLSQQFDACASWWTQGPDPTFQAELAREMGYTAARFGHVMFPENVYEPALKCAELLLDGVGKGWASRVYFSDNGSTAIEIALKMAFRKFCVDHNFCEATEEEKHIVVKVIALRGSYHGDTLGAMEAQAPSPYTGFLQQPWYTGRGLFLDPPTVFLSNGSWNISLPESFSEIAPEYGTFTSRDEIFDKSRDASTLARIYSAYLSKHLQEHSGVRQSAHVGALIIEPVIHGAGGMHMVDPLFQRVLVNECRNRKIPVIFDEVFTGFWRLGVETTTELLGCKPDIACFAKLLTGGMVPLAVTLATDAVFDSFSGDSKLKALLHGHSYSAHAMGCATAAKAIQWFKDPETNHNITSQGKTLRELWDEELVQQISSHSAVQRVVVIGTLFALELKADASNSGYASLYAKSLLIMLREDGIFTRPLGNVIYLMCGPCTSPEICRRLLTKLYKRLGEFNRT
Summary of the method: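 His-tagged Arabidopsis BIO3-BIO1 mutants, expressed in E. coli and purified by IMAC and SEC, were preincubated at 50 nM with herbicide for 10 min at 20 °C in EPPS pH 8.6 with pyridoxal phosphate. Reaction with 100 μM spermidine and 20 μM KAPA ran 75 min at 20 °C; DAPA was derivatised with o-phthalaldehyde and read at ex 410/em 470 nm. […].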

[3] = read-out: percentage inhibition

| Structure (SMILES) | percentage of damage ([1]; 7 DAT) [%] | percentage of damage ([1]; 14 DAT) [%] | percentage of damage ([1]; 21 DAT) [%] | inhibition at 0.01 µM [2, 3] [%] | inhibition at 0.075 µM [2, 3] [%] | inhibition at 0.5 µM [2, 3] [%] | percentage inhibition ([2]; WT (SEQ ID NO 294), 0.1 μM herbicide) [%] | inhibition at 0.2 µM [2, 3] [%] |
| --- | --- | --- | --- | --- | --- | --- | --- | --- |
| CCOC(=O)c1nn(-c2ccc3c(c2)OC(F)(F)C(F)(F)O3)c2cccc(C(C)=O)c2c1=O [Compound A, ethyl 5-acetyl-4-oxo-1-(2,2,3,3-tetrafluoro-1,4-benzodioxin-6-yl)cinnoline-3-carboxylate] | 0 | 0 | 0 |  |  |  |  |  |
| CCn1c(Cn2ccc(C(F)(F)F)n2)cc(=O)c(C(=O)O)c1-c1ccc(Cl)c(Cl)c1 [Compound L, 2-(3,4-dichlorophenyl)-1-ethyl-4-oxo-6-[[3-(trifluoromethyl)pyrazol-1-yl]methyl]pyridine-3-carboxylic acid] | 0 | 0 | 0 | 6 | 44 | 83 |  |  |
| CCn1c(-c2ccc(Cl)c(Cl)c2)c(C(=O)O)c(=O)c2cc(F)ccc21 [Compound M, 2-(3,4-dichlorophenyl)-1-ethyl-6-fluoro-4-oxo-quinoline-3-carboxylic acid] |  |  |  |  |  |  | 23 | 23 |
